Patent US7345056B2, “Bridged N-cyclic sulfonamido inhibitors of gamma secretase” (Elan Pharmaceuticals, Inc., priority 2005, dated 2008)

These compounds were tested against T1, gamma-secretase (partially purified extract of IMR-32 cell membranes) (Homo sapiens, UniProt P49768) (assay: Gamma-secretase APP enzyme assay (cleavage of MBP-C125 Swe at the Aβ40 site, sandwich ELISA)). Conditions: MBP-C125swe substrate, IMR-32 membrane extract, 2 h at 37° C., Aβ40 site cleavage product by ELISA; read-out: γAPP (inhibition, IC50).
T1 construct: a partially purified extract of IMR-32 cell membranes as the gamma-secretase enzyme preparation; endogenous in cells; host or cells: IMR-32 cell membranes, partially purified extract
Format: biochemical
Description: The gamma-secretase APP enzyme assay was designed to measure the specific proteolytic cleavage of an APP substrate (MBP-C125 Swe fusion protein) at the Aβ40 site. […] This assay involved two steps beginning with the enzymatic reaction generating a cleavage product that was captured with an immobilized antibody specific for the neo-epitope Aβ40 site. The captured cleavage product was then detected in a sandwich ELISA assay with a biotinylated reporter antibody that is specific to Aβ (17-28). Streptavidin-linked alkaline phosphatase was then added that would generate a fluorescent signal proportional to the amount of cleavage product.
This warmed solution of BigCHAPS(N,N-Bis(3-D-gluconamidopropyl)cholamide) detergent was used to dissolve Brain Extract Type-V (lipid containing a minimum of 40% phosphatidylethanolamine) from Sigma (St. Louis, Mo.) to a concentration of 8 mg/ml. This solution containing BigCHAPS and lipid at 8 mg/ml is then diluted to 0.53 mg/ml lipid with a pre-warmed solution of Hepes and sodium chloride. This final solution containing Hepes buffer, sodium chloride, BigCHAPS detergent and lipid is used to create working solutions of both gamma-secretase (25 Units) and the MBP-C125 substrate (0.05 mg/ml).
Gamma-secretase was then added to a 96-well micro-titre plate and then incubated with various concentrations of inhibitor for 30 minutes at 37° C. MBPC125 substrate was then added to initiate the reaction that would run for two hours at 37° C. The reaction was quenched with the addition of SDS to a final concentration of 0.1% and then 100 μl of the reaction mixture was transferred to a capture ELISA plate and incubated overnight at 4° C. Detection of the cleavage product was performed using a standard sandwich ELISA assay and quantified using a six point standard curve.

Row | Compound | IC50 [nM]
1 | N-[12-(4-Chloro-benzenesulfonyl)-4,5,12-triaza-tricyclo[6.3.1.0^2,6]dodeca-2(6),3-dien-7-yl]-acetamide [Example 98] | < 100
2 | Nc1n[nH]c2c1C1CCCC(C2)N1S(=O)(=O)c1ccc(Cl)cc1 (stereo not shown) [Example 94, 12-(4-Chloro-benzenesulfonyl)-4,5,12-triaza-tricyclo[6.3.1.0^2,6]dodeca-2(6),3-dien-3-ylamine] | < 100
3 | CC(C)C(=O)n1cc2c(n1)CC1CCCC2N1S(=O)(=O)c1ccc(Cl)cc1 (stereo not shown) [Example 84, 1-[12-(4-Chloro-benzenesulfonyl)-4,5,12-triaza-tricyclo[6.3.1.0^2,6]dodeca-2,5-dien-4-yl]-2-methyl-propan-1-one] | < 100
4 | O=S(=O)(c1ccc(Cl)cc1)N1C2CCC1c1cn[nH]c1C2 (stereo not shown) [Example 79, 11-(4-Chloro-benzenesulfonyl)-4,5,11-triaza-tricyclo[6.3.1.0^2,6]undeca-2(6),3-diene] | < 100
5 | Nc1ncc2c(n1)CC1CCCC2N1S(=O)(=O)c1ccc(Cl)cc1 (stereo not shown) [Example 87, 13-(4-Chloro-benzenesulfonyl)-4,6,13-triaza-tricyclo[7.3.1.0^2,7]trideca-2(7),3,5-trien-5-ylamine] | 100 to 250
6 | O=S(=O)(c1ccc(Cl)cc1)N1C2CCCC1C(O)c1[nH]ncc12 (stereo not shown) [Example 36, 12-(4-Chloro-benzenesulfonyl)-4,5,12-triaza-tricyclo[6.3.1.0^2,6]dodeca-2(6),3-dien-7-ol] | < 100
7 | O=S(=O)(c1ccc(Cl)cc1)N1C2CCCC1c1c(C(F)F)n[nH]c1C2 (stereo not shown) [12-(4-Chloro-benzenesulfonyl)-3-difluoromethyl-4,5,12-triaza-tricyclo[6.3.1.0^2,6]dodeca-2(6),3-diene] | < 100
8 | O=S(=O)(c1ccc(Cl)cc1)N1C2CCCC1c1c(Cl)n[nH]c1C2 (stereo not shown) [Example 91, 3-Chloro-12-(4-chloro-benzenesulfonyl)-4,5,12-triaza-tricyclo[6.3.1.0^2,6]dodeca-2(6),3-diene] | 250 to 500
9 | CC1c2[nH]ncc2C2CCCC1N2S(=O)(=O)c1ccc(Cl)cc1 (stereo not shown) [Example 11, 12-(4-Chloro-benzenesulfonyl)-7-methyl-4,5,12-triaza-tricyclo[6.3.1.0^2,6]dodeca-2(6),3-diene] | < 100
10 | Cc1n[nH]c2c1C1CCCC(C2)N1S(=O)(=O)c1ccc(Cl)cc1 (stereo not shown) [12-(4-Chloro-benzenesulfonyl)-3-methyl-4,5,12-triaza-tricyclo[6.3.1.0^2,6]dodeca-2(6),3-diene] | < 100
11 | Nc1n[nH]c2c1C1CCCC(C2)N1S(=O)(=O)c1ccc(Cl)cc1 (stereo not shown) [Example 97, 12-(4-Chloro-benzenesulfonyl)-4,5,12-triaza-tricyclo[6.3.1.0^2,6]dodeca-2(6),3-dien-3-ylamine] | < 100
12 | O=S(=O)(c1ccc(Cl)cc1)N1C2CCCC1c1cnc3c(-c4ccccc4)cnn3c1C2 (stereo not shown) [Example 62, 16-(4-Chloro-benzenesulfonyl)-6-phenyl-4,8,9,16-tetraaza-tetracyclo-[10,3,1,0^2,10,0^5,9]-hexadeca-2(10),3,5,7-tetraene] | 100 to 250
13 | CCC1c2[nH]ncc2C2CCCC1N2S(=O)(=O)c1ccc(Cl)cc1 (stereo not shown) [Example 14, 12-(4-Chloro-benzenesulfonyl)-7-ethyl-4,5,12-triaza-tricyclo[6.3.1.0^2,6]dodeca-2(6),3-diene] | < 100
14 | O=S(=O)(c1ccc(Cl)cc1)N1C2CCCC1c1cnn(C3CCCCC3)c1C2 (stereo not shown) [Example 66, 12-(4-Chloro-benzenesulfonyl)-5-cyclohexyl-4,5,12-triaza-tricyclo[6.3.1.0^2,6]dodeca-2(6),3-diene] | 250 to 500
15 | CC(=O)OC(C)(C)C(=O)n1cc2c(n1)CC1CCCC2N1S(=O)(=O)c1ccc(Cl)cc1 (stereo not shown) [Example 85, Acetic acid 2-[12-(4-chloro-benzenesulfonyl)-4,5,12-triaza-tricyclo[6.3.1.0^2,6]dodeca-2,5-dien-4-yl]-1,1-dimethyl-2-oxo-ethyl ester] | < 100
16 | Cn1ncc2c1CC1CCCC2N1S(=O)(=O)c1ccc(Cl)cc1 (stereo not shown) [Example 53, 12-(4-Chloro-benzenesulfonyl)-5-methyl-4,5,12-triaza-tricyclo[6.3.1.0^2,6]dodeca-2(6),3-diene] | 250 to 500
17 | O=S(=O)(c1ccc(Cl)cc1)N1C2CCCC1c1c(C(F)(F)F)n[nH]c1C2 (stereo not shown) [Example 82, 12-(4-Chloro-benzenesulfonyl)-3-trifluoromethyl-4,5,12-triaza-tricyclo-[6.3.1.0^2,6]dodeca-2(6),3-diene] | < 100
18 | CC(=O)n1cc2c(n1)CC1CCCC2N1S(=O)(=O)c1ccc(Cl)cc1 (stereo not shown) [Example 83, 1-[12-(4-Chloro-benzenesulfonyl)-4,5,12-triaza-tricyclo[6.3.1.0^2,6]dodeca-2,5-dien-4-yl]-ethanone] | < 100
19 | O=S(=O)(c1ccc(Cl)cc1)N1C2CCCC1c1c(C(F)(F)F)n[nH]c1C2 (stereo not shown) [Example 89, 12-(4-Chloro-benzenesulfonyl)-3-trifluoromethyl-4,5,12-triaza-tricyclo-[6.3.1.0^2,6]dodeca-2(6),3-diene] | 100 to 250
20 | O=S(=O)(c1ccc(Cl)cc1)N1C2CCCC1c1cnc3cc(-c4ccccc4)nn3c1C2 (stereo not shown) [Example 63, 16-(4-Chloro-benzenesulfonyl)-7-phenyl-4,8,9,16-tetraaza-tetracyclo-[10,3,1,0^2,10,0^5,9]-hexadeca-2(10),3,5,7-tetraene] | 250 to 500
21 | O=S(=O)(c1ccc(Cl)s1)N1C2CCCC1c1cn[nH]c1C2 (stereo not shown) [Example 8, 12-(5-Chloro-thiophene-2-sulfonyl)-4,5,12-triaza-tricyclo[6.3.1.0^2,6]dodeca-2(6),3-diene] | < 100
22 | C=CCOC(=O)n1cc2c(n1)CC1CCCC2N1S(=O)(=O)c1ccc(Cl)cc1 (stereo not shown) [Example 86, 12-(4-Chloro-benzenesulfonyl)-4,5,12-triaza-tricyclo[6.3.1.0^2,6]dodeca-2,5-diene-4-carboxylic acid allyl ester] | 250 to 500
